In US20250128062A1 (priority 2023, published 2025):
Entries after “also recorded” stand apart in the source; their conditions may differ.

How the values were obtained:
[1] = in vivo; cited from earlier work
α1 unit of Na,K-ATPase = conditions: read-out: Kd to block the α1 unit of Na,K-ATPase; cited from earlier work
[2] = test system: afferent transmission in C-fiber and Aδ-fiber afferents (DRG); assay: ex vivo single-fiber recordings of afferent transmission block by DRG stimulation with local Na,K-ATPase inhibition (3-compartment tissue chamber)
Excerpt: FIG. 9A is a plot of ex vivo single-fiber recordings from afferent axons in a 3-compartment tissue chamber that isolates the DRG from the spinal nerve and dorsal root allowing focused pharmacological application.
Action potentials were evoked by stimulating the peripheral end of the spinal nerve, which is transmitted down the peripheral and central axons to be recorded by extracellular single-fiber recordings from split dorsal root filaments.

[3] = patients; cited from earlier work

Structure (SMILES): C[C@H]1O[C@@H](O[C@H]2[C@@H](O)C[C@H](O[C@H]3[C@@H](O)C[C@H](O[C@H]4CC[C@@]5(C)[C@H](CC[C@@H]6[C@@H]5CC[C@]5(C)[C@@H](C7=CC(=O)OC7)CC[C@]65O)C4)O[C@@H]3C)O[C@@H]2C)C[C@H](O)[C@@H]1O [digitoxin]
- route of elimination from the body [1]: eliminated via the liver

Structure (SMILES): C[C@@H]1O[C@@H](O[C@H]2C[C@@H](O)[C@]3(CO)[C@H]4[C@H](O)C[C@]5(C)[C@@H](C6=CC(=O)OC6)CC[C@]5(O)[C@@H]4CC[C@]3(O)C2)[C@H](O)[C@H](O)[C@H]1O [ouabain]
- Kd (α1 unit of Na,K-ATPase): 32 to 170 µM
- transmission block of C-fiber afferent by 10 Hz DRG stimulation ([2]; 10 Hz DRG stimulation combined with ouabain 10 μg/mL (17.1 μM), OBF for C-fibers ~50 Hz without drug): effectively blocks afferent transmission; also recorded: transmission block is achieved; also recorded: selectively block C-fiber afferents
- transmission block of Aδ-fiber afferent by 10 Hz DRG stimulation ([2]; 10 Hz DRG stimulation combined with ouabain 17.1 μM): unblocked; also recorded: unaffected
- transmission block by DRG stimulation as measured by the time to resume transmission following terminating the DRG stimulation ([2]; ouabain 10 μg/mL or 17.1 μM applied locally to the DRG in the middle compartment): significantly prolonged
- separation of optimal blocking frequency (OBF) between C-fibers and thinly myelinated Aδ-fibers ([2]; ouabain applied to the DRG): greater separation

Structure (SMILES): C[C@H]1O[C@@H](O[C@H]2[C@@H](O)C[C@H](O[C@H]3[C@@H](O)C[C@H](O[C@H]4CC[C@@]5(C)[C@H](CC[C@@H]6[C@@H]5C[C@@H](O)[C@]5(C)[C@@H](C7=CC(=O)OC7)CC[C@]65O)C4)O[C@@H]3C)O[C@@H]2C)C[C@H](O)[C@@H]1O [digoxin]
- serum level considered safe with no apparent side effects [3]: < 1.0 ng/mL
